The assay deals with Sprague-Dawley rats. Description: Blood glucose depression after intracolonic bovine pancreatic insulin given with absorption enhancer. In kind it is in vivo. The note with it: enhancer 0 mg/kg (insulin alone), rats n=3. How it is done: It is neutralized by 1 equivalent of sodium hydroxide. The pH is adjusted to 7-8 by 1N HCl and saturated sodium bicarbonate. Bovine pancreatic insulin (1.75 mL; Sigma, 10 mg/mL; in pH 8.2 HEPES buffer) is added and mixed by gentle swirling. The solution density is determined so that the required dose may be calculated.
The solution is then given to Sprague-Dawley rats (2-day fasting, female, 250-300 g, n=3), intracolonically. Blood samples are taken from the tail vein and glucose levels measured using an OneTouch® UltraSmart® blood glucose meter.

With “bovine pancreatic insulin: Bovine pancreatic insulin (Sigma, 10 mg/mL; in pH 8.2 HEPES buffer), the active agent co-administered”, the “Blood glucose, % of basal level” value was 100 % of basal level (0 min); 94 ± 4 % of basal level (30 min); 102 ± 7 % of basal level (60 min); 105 ± 3 % of basal level (90 min); 107 ± 7 % of basal level (120 min); 94 ± 7 % of basal level (150 min). For the same substance, the “Blood glucose, % of basal level” value by setting is: (180 min) 111 ± 7 % of basal level; (210 min) 113 ± 4 % of basal level; (240 min) 100 ± 7 % of basal level.

Source of the values: patent US9149530B2, “Compositions and methods for enhancing active agent absorption” (Nexus Pharma, Inc., priority 2006, dated 2015).
